From patent publication US12588677B2, “Herbicidal compositions comprising topramezone” (BASF SE, priority 2024, dated 2026)

How the values were obtained:
Assay type in all cases: in vivo
[1] = test system: Abutilon theophrasti (ABUTH); assay: Post-emergence application in field trials; settings: height 10-12 cm
Description: (§1) Post-Emergence Application of Herbicide A-1 (A-1) and Topramezone (B-1) in Field Trials
(§2) Herbicide A-1 (342 g/l) and topramezone (336 g/l) were, together with addition of 0.25 v/v % MSO (methylated sed oil) as adjuvant, formulated in water as distribution medium (water volume 200 l/ha) and sprayed with commercial flat fan nozzles.

Hordeum vulgare (HORVX) = assay: Post-emergence application in field trials; settings: height 20-25 cm
Description: as §1, §2

Glycine max (GLXMA) [2] = assay: Post-emergence application in field trials; settings: height 7-11 cm, 7 DAT
Description: as §1, §2

[3] = test system: Digitaria sanguinalis (DIGSA); assay: Post-emergence application in field trials; settings: 21 DAT, height 10-15 cm
Description: as §1, §2

[4] = test system: Setaria verticillata (SETVE); assay: Post-emergence application in field trials; settings: height 8-16 cm
Description: as §1, §2

Zea mays (ZEAMX) [5] = assay: Post-emergence application in field trials; settings: height 50-60 cm
Description: as §1, §2

[6] = test system: Erigeron canadensis (ERICA); assay: Post-emergence application in greenhouse trials; settings: 20 DAT
Description: (§3) The culture containers used were plastic pots containing loamy sand with approximately 3.0% of humus as substrate. The seeds of the test plants were sown separately for each species.
(§4) For the post-emergence treatment, the test plants were grown to a plant height as indicated below, depending on the plant habit, and only then treated with the active compounds which had been suspended or emulsified in water. To this end, the test plants were either sown directly, and grown in the same containers, or they were first grown separately as seedlings and transplanted into the test containers a few days prior to treatment.
(§5) Depending on the species, the plants were kept at 10-25° C. and 20-35° C., respectively. The test period extended over 2 to 4 weeks. During this time, the plants were tended and their response to the individual treatments was evaluated.
(§6) Evaluation was carried out using a scale from 0 to 100. 100 means no emergence of the plants, or complete destruction of at least the above-ground parts, and 0 means no damage or normal course of growth. A good herbicidal activity is given at values of at least 70, and very good herbicidal activity is given at values of at least 85.
(§7) Herbicide A-1 and topramezone were, together with addition of 0.5 v/v % MSO (methylated sed oil) as adjuvant, formulated in water as distribution medium (water volume 200 l/ha) and sprayed with commercial flat fan nozzles.
(§8) Herbicide A-1 (342 g/l), topramezone (336 g/l) and DMTA-p (720 g/l) were, together with addition of 0.5 v/v % MSO (methylated sed oil) as adjuvant, formulated in water as distribution medium (water volume 200 l/ha) and sprayed with commercial flat fan nozzles.

Avena fatua (AVEFA) = assay: Post-emergence application in greenhouse trials
Description: as §3, §4, §5, §6, §7, §8

Kochia scoparia (KCHSC) = assay: Post-emergence application in greenhouse trials; settings: 20 DAT
Description: as §3, §4, §5, §6, §7, §8

[7] = test system: Brachiaria decumbens (BRADC (BRARU)); assay: Post-emergence application in greenhouse trials
Description: as §3, §4, §5, §6, §7, §8

[8] = test system: Abutilon theophrasti (ABUTH); assay: Post-emergence application in greenhouse trials; settings: 7 DAT
Description: as §3, §4, §5, §6, §7, §8

[9] = test system: Commelina benghalenis (COMBE); assay: Post-emergence application in greenhouse trials
Description: as §3, §4, §5, §6, §7, §8

Glycine max (GLXMA) [10] = assay: Post-emergence application in greenhouse trials; settings: 7 DAT
Description: as §3, §4, §5, §6, §7, §8

[11] = test system: Amaranthus tamariscinus (AMATA); assay: Post-emergence application in greenhouse trials; settings: 7 DAT
Description: as §3, §4, §5, §6, §7, §8

Setaria virids (SETVI) = assay: Post-emergence application in greenhouse trials
Description: as §3, §4, §5, §6, §7, §8

Eleusine indica (ELEIN) = assay: Post-emergence application in greenhouse trials; settings: 7 DAT
Description: as §3, §4, §5, §6, §7, §8

[12] = test system: Digitaria sanguinalis (DIGSA); assay: Post-emergence application in greenhouse trials; settings: 20 DAT
Description: as §3, §4, §5, §6, §7, §8

Zea mays (ZEAMX) [13] = assay: Post-emergence application in greenhouse trials
Description: as §3, §4, §5, §6, §7, §8

[14] = 7 DAT, growth stage 11, 2 g ai/ha
[15] = 20 DAT, growth stage 12, 0.5 g ai/ha
[16] = 20 DAT, growth stage 12, 1 g ai/ha
[17] = 7 DAT, growth stage 11, 3.125 g ai/ha
[18] = 7 DAT, growth stage 11, 120 g ai/ha

SMILES: CCOC(=O)COc1ccccc1Oc1nc(-n2c(=O)cc(C(F)(F)F)n(C)c2=O)c(F)cc1Cl [A-1, ethyl 2-[2-[[3-chloro-5-fluoro-6-[3-methyl-2,6-dioxo-4-(trifluoromethyl)pyrimidin-1-yl]-2-pyridyl]oxy]phenoxy]acetate]
- % herbicidal activity ([1]; 21 DAT, 18 g ai/ha): 92%
- % herbicidal activity ([1]; 42 DAT, 18 g ai/ha): 90%
- % herbicidal activity ([1]; ABUTH, A-1 18 g ai/ha, 7 DAT): 90%
- % herbicidal activity (Hordeum vulgare (HORVX); 21 DAT, 12.5 g ai/ha): 90%
- % herbicidal activity (Hordeum vulgare (HORVX); 21 DAT, 18 g ai/ha): 95%
- % herbicidal activity (Hordeum vulgare (HORVX); HORVX, A-1 12.5 g ai/ha, 7 DAT): 70%
- % herbicidal activity (Glycine max (GLXMA) [2]; A-1 18 g ai/ha): 93%
- % herbicidal activity ([3]; 12.5 g ai/ha): 70%
- % herbicidal activity ([4]; 21 DAT, 12.5 g ai/ha): 45%
- % herbicidal activity ([4]; 42 DAT, 12.5 g ai/ha): 30%
- % herbicidal activity (Zea mays (ZEAMX) [5]; 21 DAT, 12.5 g ai/ha): 70%
- % herbicidal activity (Zea mays (ZEAMX) [5]; 21 DAT, 18 g ai/ha): 75%
- % herbicidal activity (Zea mays (ZEAMX) [5]; 28 DAT, 12.5 g ai/ha): 50%
- % herbicidal activity (Zea mays (ZEAMX) [5]; 28 DAT, 18 g ai/ha): 60%
- % herbicidal activity ([6]; growth stage 19, 0.5 g ai/ha): 0%
- % herbicidal activity ([6]; growth stage 19, 2 g ai/ha): 40%
- % herbicidal activity (Avena fatua (AVEFA); [14]): 55%
- % herbicidal activity (Avena fatua (AVEFA); 21 DAT, growth stage 11, 2 g ai/ha): 30%
- % herbicidal activity (Kochia scoparia (KCHSC); growth stage 24, 0.25 g ai/ha): 0%
- % herbicidal activity [7, 14]: 50%
- % herbicidal activity ([7]; 20 DAT, growth stage 12, 0.25 g ai/ha): 5%
- % herbicidal activity [7, 15]: 15%
- % herbicidal activity [7, 16]: 30%
- % herbicidal activity ([8]; growth stage 15, 0.5 g ai/ha): 85%
- % herbicidal activity ([8]; ABUTH, growth stage 13, A-1 0.25 g ai/ha): 10%
- % herbicidal activity ([8]; ABUTH, growth stage 13, A-1 1 g ai/ha): 50%
- % herbicidal activity ([9]; 20 DAT, growth stage 11, 1 g ai/ha): 5%
- % herbicidal activity ([9]; 21 DAT, growth stage 13, 1 g ai/ha): 80%
- % herbicidal activity (Glycine max (GLXMA) [10]; growth stage 18, 1 g ai/ha): 90%
- % herbicidal activity ([11]; growth stage 14, A-1 1 g ai/ha): 80%
- % herbicidal activity (Setaria virids (SETVI); [15]): 10%
- % herbicidal activity (Setaria virids (SETVI); [16]): 15%
- % herbicidal activity (Setaria virids (SETVI); SETVI, growth stage 12, A-1 1 g ai/ha, 7 DAT): 15%
- % herbicidal activity (Setaria virids (SETVI); SETVI, growth stage 12, A-1 2 g ai/ha, 7 DAT): 25%
- % herbicidal activity (Eleusine indica (ELEIN); growth stage 13, A-1 1 g ai/ha): 45%
- % herbicidal activity ([12]; growth stage 13, 0.25 g ai/ha): 5%
- % herbicidal activity (Zea mays (ZEAMX) [13]; 7 DAT, growth stage 12, 2 g ai/ha): 60%
- % herbicidal activity (Zea mays (ZEAMX) [13]; 21 DAT, growth stage 12, 2 g ai/ha): 40%

SMILES: Cc1c(C(=O)c2cnn(C)c2O)ccc(S(C)(=O)=O)c1C1=NOCC1 [B-1, topramezone]
- % herbicidal activity ([1]; 21 DAT, 12.5 g ai/ha): 60%
- % herbicidal activity ([1]; 21 DAT, 18 g ai/ha): 65%
- % herbicidal activity ([1]; 42 DAT, 12.5 g ai/ha): 60%
- % herbicidal activity ([1]; 42 DAT, 18 g ai/ha): 65%
- % herbicidal activity ([1]; ABUTH, B-1 12.5 g ai/ha, 7 DAT): 50%
- % herbicidal activity ([1]; ABUTH, B-1 18 g ai/ha, 7 DAT): 55%
- % herbicidal activity (Hordeum vulgare (HORVX); 21 DAT, 12.5 g ai/ha): 0%
- % herbicidal activity (Hordeum vulgare (HORVX); 21 DAT, 18 g ai/ha): 10%
- % herbicidal activity (Hordeum vulgare (HORVX); HORVX, B-1 18 g ai/ha, 7 DAT): 20%
- % herbicidal activity (Glycine max (GLXMA) [2]; B-1 12.5 g ai/ha): 45%
- % herbicidal activity (Glycine max (GLXMA) [2]; B-1 18 g ai/ha): 45%
- % herbicidal activity ([3]; 18 g ai/ha): 40%
- % herbicidal activity ([4]; 21 DAT, 18 g ai/ha): 45%
- % herbicidal activity ([4]; 42 DAT, 18 g ai/ha): 40%
- % herbicidal activity (Zea mays (ZEAMX) [5]; 21 DAT, 12.5 g ai/ha): 0%
- % herbicidal activity (Zea mays (ZEAMX) [5]; 21 DAT, 18 g ai/ha): 0%
- % herbicidal activity (Zea mays (ZEAMX) [5]; 28 DAT, 12.5 g ai/ha): 0%
- % herbicidal activity (Zea mays (ZEAMX) [5]; 28 DAT, 18 g ai/ha): 0%
- % herbicidal activity ([6]; growth stage 19, 3.12 g ai/ha): 25%
- % herbicidal activity ([6]; growth stage 19, 6.25 g ai/ha): 55%
- % herbicidal activity (Avena fatua (AVEFA); [17]): 10%
- % herbicidal activity (Avena fatua (AVEFA); 21 DAT, growth stage 11, 3.125 g ai/ha): 10%
- % herbicidal activity (Kochia scoparia (KCHSC); growth stage 24, 6.25 g ai/ha): 60%
- % herbicidal activity [7, 17]: 50%
- % herbicidal activity ([7]; 20 DAT, growth stage 12, 6.25 g ai/ha): 75%
- % herbicidal activity ([8]; growth stage 15, 3.125 g ai/ha): 50%
- % herbicidal activity ([8]; ABUTH, growth stage 13, B-1 3.12 g ai/ha): 45%
- % herbicidal activity ([9]; 20 DAT, growth stage 11, 6.25 g ai/ha): 10%
- % herbicidal activity ([9]; 21 DAT, growth stage 13, 3.125 g ai/ha): 35%
- % herbicidal activity (Glycine max (GLXMA) [10]; growth stage 18, 3.125 g ai/ha): 20%
- % herbicidal activity ([11]; growth stage 14, B-1 6.25 g ai/ha): 80%
- % herbicidal activity (Setaria virids (SETVI); 20 DAT, growth stage 12, 3.12 g ai/ha): 70%
- % herbicidal activity (Setaria virids (SETVI); SETVI, growth stage 12, B-1 6.25 g ai/ha, 7 DAT): 75%
- % herbicidal activity (Eleusine indica (ELEIN); growth stage 13, B-1 3.12 g ai/ha): 80%
- % herbicidal activity ([12]; growth stage 13, 3.12 g ai/ha): 85%
- % herbicidal activity (Zea mays (ZEAMX) [13]; 7 DAT, growth stage 12, 3.125 g ai/ha): 5%
- % herbicidal activity (Zea mays (ZEAMX) [13]; 21 DAT, growth stage 12, 3.125 g ai/ha): 0%

SMILES: COC[C@H](C)N(C(=O)CCl)c1c(C)csc1C [C-23, dimethenamid-p (DMTA-p)]
- % herbicidal activity (Avena fatua (AVEFA); [18]): 0%
- % herbicidal activity (Avena fatua (AVEFA); 21 DAT, growth stage 11, 120 g ai/ha): 40%
- % herbicidal activity [7, 18]: 10%
- % herbicidal activity ([8]; growth stage 15, 120 g ai/ha): 0%
- % herbicidal activity ([9]; 21 DAT, growth stage 13, 120 g ai/ha): 10%
- % herbicidal activity (Glycine max (GLXMA) [10]; growth stage 18, 120 g ai/ha): 0%
- % herbicidal activity (Zea mays (ZEAMX) [13]; 7 DAT, growth stage 12, 120 g ai/ha): 0%
- % herbicidal activity (Zea mays (ZEAMX) [13]; 21 DAT, growth stage 12, 120 g ai/ha): 0%
